Test results: paper PMC9227781, “Inhibitors of O-Acetylserine Sulfhydrylase with a Cyclopropane-Carboxylic Acid Scaffold Are Effective Colistin Adjuvants in Gram Negative Bacteria” (Pharmaceuticals, 2022)

How the values were obtained:
S. Typhimurium ATCC14028 = assay: Checkerboard assay with colistin, S. Typhimurium; type: cell-based, Salmonella enterica serovar Typhimurium; settings: for MIC: Salmonella enterica, colistin in combination with compound at 8 μg/mL; for fold reduction with respect to the MIC of colistin alone, S. Typhimurium: compound at 8 µg/mL
Method: (§1) Antimicrobial activity of associations between the different compounds and colistin (Sigma-Aldrich, St. Louis, MO, USA, lot n. 049M-4836 V) was tested with checkerboard assay with minor modifications, as mentioned in the previous work. For each assay, three experiments with three replicates each were assessed. For each compound tested concentration, 96-wells microtiter U-plates were prepared with twofold serial dilutions of colistin in MHB starting from the MIC value (µg/mL) for ten consecutive dilutions in 50 µL of broth. In each well of the same replicate, 1 µL of each compound in DMSO was added at a fixed concentration, 100 times higher than the final desired concentration (3.2; 1.6; 0.8 mg/mL). Subsequently, 49 µL of the bacterial suspension at a concentration of 10^6 CFU/mL, adjusted spectrophotometrically as reported above, was added to each well, reaching the final bacterial concentration of 5 × 10^5 CFU/mL. Growth and sterility controls were performed for each experiment and for each replicate. Finally, the plates were incubated at 37 °C in aerobic atmosphere for 24 h. After incubation, plates were read by unaided eye with a microtiter reading mirror and then the OD of each well of the plates was measured spectrophotometrically at 620 nm. MIC values were calculated as the arithmetic mean ± SD of the unaided eye reading and the inhibition of growth for each tested dilution was calculated from the OD values (mean ± SD).
(§2) To evaluate the antimicrobial effect of the two molecules in association, the FIC index was calculated as follows. The MICs of each of the two molecules tested individually and in combination with each other were evaluated and the results have been included in the following formula as reported by Meletiadis et al.: FIC=MICA in combination/MICA+MICB in combination/MICB where MICA was the MIC of the compound UPAR415 and MICA in combination was the MIC of UPAR415 in combination with colistin. MICB was the MIC of colistin and MICB in combination was the MIC of colistin in combination with UPAR415. From the results of the FIC index formula, the antimicrobial activity in combination of the two molecules can be considered: synergistic, additive, indifferent of antagonistic. If the FIC index is ≤ 0.5, the association is synergic; additive if FIC is between 0.5 and 1; indifferent if FIC is between 1 and 4; and antagonistic if FIC is ≥4 [50].
(§3) Statistical analysis of checkerboard results in comparison with MIC values of colistin alone was performed using the Analysis of Variance (ANOVA) test.

E. coli ATCC 25922 = assay: Checkerboard assay with colistin, E. coli; type: cell-based, Escherichia coli; settings: for MIC Colistin E. coli: colistin in combination with compound at 8 μg/mL; for FIC Index E. coli / FIC Index interpretation E. coli: compound at 8 μg/mL with colistin; for fold reduction of MIC of colistin, E. coli: compound at 8 µg/mL, versus colistin alone
Method: as §1, §2, §3

S. Typhimurium DW378 = assay: Target engagement: MIC of 12h and colistin in cysK/cysM-inactive mutant strain; type: cell-based, Salmonella enterica serovar Typhimurium
Method: In this regard, compound 12h has been selected because of its favorable overall properties. It has been tested at a concentration of 32 μg/mL, in order to ensure complete inactivation of both the OASS isoforms. […] The MIC assays of 12h and colistin alone on the DW378 strain have been performed and they have been compared with those obtained on the WT strain. […] But, on the other hand, the MIC value of colistin was […] lower on the mutant strain than that on the WT, a result that overlapped those achieved with the association of colistin and 12h in WT cells.
MIC values were evaluated following CLSI guidelines with some modifications, as referred to in previous work. Twofold dilutions 25.6–0.05 mg/mL of the tested compounds were performed in DMSO in separate 96-well microtiter U-plates (Greiner, Milan, Italy). In a different 96-well microtiter U-plate, for each well of the replicates, 49 µL of broth medium were added. Then, in each well of the plate, one microliter of each compound at variable dilution in DMSO was added. For each test, three independent experiments with three replicates each were performed.
as §1
* This strain is defective for the expression of cysK and cysM genes, encoding for isozymes OASS-A and B. The genotypes of this strain are trpC109, cysK1772, and cysM1770. […]

[1] = compound at 8 μg/mL with colistin

Cc1ccc(CC2(C(=O)O)CC2c2cccc(N3CC(C)OC(C)C3)c2)cc1 (stereo not drawn) [Compound 13h, trans-2-(3-(2,6-dimethylmorpholino)phenyl)-1-(4-methylbenzyl)cyclopropanecarboxylic acid]
MIC (S. Typhimurium ATCC14028): 0.468 ± 0.01 µg/mL
fold reduction with respect to the MIC of colistin alone, S. Typhimurium (S. Typhimurium ATCC14028): 2 fold
FIC Index S. Typhimurium (S. Typhimurium ATCC14028; [1]): 0.90
MIC Colistin E. coli (E. coli ATCC 25922): 0.18 ± 0.06 µg/mL
FIC Index E. coli (E. coli ATCC 25922): 0.48
FIC Index interpretation E. coli (E. coli ATCC 25922): synergy (If the FIC index is ≤ 0.5, the association is synergic)
fold reduction of MIC of colistin, E. coli (E. coli ATCC 25922): 3 fold

CCOC(=O)C1(Cc2ccc(C)cc2)CC1c1cccc(N2CC(C)OC(C)C2)c1 (stereo not drawn) [Compound 12h, trans-ethyl 2-(3-(2,6-dimethylmorpholino)phenyl)-1-(4-methylbenzyl)cyclopropanecarboxylate]
MIC (S. Typhimurium ATCC14028): 0.101 ± 0.07 µg/mL
MIC Colistin (S. Typhimurium ATCC14028; colistin in combination with 12h at 32 μg/mL, S. Typhimurium ATCC14028 (wild type)): 0.125 ± 0.08 µg/mL
fold reduction with respect to the MIC of colistin alone, S. Typhimurium (S. Typhimurium ATCC14028): 5 fold
FIC Index S. Typhimurium (S. Typhimurium ATCC14028; [1]): 0.21
FIC Index interpretation S. Typhimurium (S. Typhimurium ATCC14028; [1]): synergy (If the FIC index is ≤ 0.5, the association is synergic)
MIC Colistin E. coli (E. coli ATCC 25922): 0.122 ± 0.08 µg/mL
FIC Index E. coli (E. coli ATCC 25922): 0.33
FIC Index interpretation E. coli (E. coli ATCC 25922): synergy (If the FIC index is ≤ 0.5, the association is synergic)
fold reduction of MIC of colistin, E. coli (E. coli ATCC 25922): 2 fold
MIC (S. Typhimurium DW378; Salmonella enterica, TYPHIMURIUM, 12 h, read-out: MIC 12h (μg/mL)): > 512 µg/mL
MIC Colistin (S. Typhimurium DW378; colistin in combination with 12h at 32 μg/mL, DW378 mutant strain): 0.141 ± 0.09 µg/mL
